Measured values published in PubChem BioAssay AID2060325 (Molecular Pharmacology Branch, DTP, NCI, 2025).

System: SK-OV-3 multi-cell spheroids, viability
Experiment: Anticancer human tumor SK-OV-3 cell line growth inhibition [IpAb];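 as to viability, T/C: viability read after seven days of drug exposure; percent of DMSO vehicle control luminescence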
Details: for viability, T/C: stronger effect = lower value
Description: Combinatorial screen of targeted agents with ipatasertib and abemaciclib in multi-cell type tumor spheroids
A high-throughput screen of multi-cell type tumor spheroids was designed to identify active combinations of targeted small molecules and ipatasertib or abemaciclib. Complex spheroids include a stromal component modeled by human endothelial cells (HUVEC) and fibroblasts modeled by human mesenchymal stem cells (MSCs). The concentration ranges selected for each drug and investigational agent were based upon clinically achievable concentrations if the clinical Cmax of the agent was known.
Compounds. The drugs and investigational agents: ipatasertib (NSC767898), abemaciclib(NSC768073), selumetinib (NSC741078), trametinib (758246), adavosertib (NSC754352), everolimus (NSC733504), sapanisertib (NSC764658), vemurafenib (NSC761431), venetoclax (NSC766270), copanlisib (NSC809693), apelisib (NSC765974), palbociblib (NSC758247), vemurafenib (NSC761431), dabrafenib (NSC764134), ravoxertinib (NSC781343), BMS-387032 (NSC767048), sotorasib (NSC818433), talazoparib (NSC767125) and afursertib (NSC778305), were obtained from the National Cancer Institute (NCI) Developmental Therapeutics Program Chemical Repository. The FDA-approved anticancer drug set is available from the NCI Developmental Therapeutics Program. […] The stock solutions were prepared in dimethyl sulfoxide (DMSO, Sigma-Aldrich, St. Louis, MO, cat. D2650) at 800-fold the tested concentration and stored at -70 degrees C prior to their use. All drugs and investigational agents were tested over a range starting from a high concentration at or near the clinical Cmax and decreasing in half-log increments. If the clinical Cmax for an agent had not been determined, the highest concentration tested was 10 microM.
NCI60 Cell Culture. NCI60 cell lines were obtained from the NCI Developmental Therapeutics Program Tumor Repository. For each lot of cells, the Repository performed Applied Biosystems AmpFLSTR Identifiler testing with PCR amplification to confirm consistency with the published Identifier STR profile for each cell line. Cells were kept in continuous culture for no more than 20 passages. The optimal seeding densities for each of the cell lines at each time point assessed were determined prior to performing the concentration response studies. Briefly, the NCI60 human tumor lines were grown as monolayers in RPMI 1640 medium supplemented with 10% FBS and 2 mmol/L L-glutamine.
An additional 9 lines were from the NCI60 cell line panel including MDA-MB-231 breast carcinoma, MDA-MB-468 breast carcinoma, MCF7 breast carcinoma, Hs578T breast carcinoma, MALME-3M melanoma, SK-MEL-2 melanoma, SK-OV-3 ovarian carcinoma, DU-145 prostate carcinoma, PC-3 prostate carcinoma, all cell lines along with major genetic alterations are listed on Table 2. Pooled donor human umbilical vein endothelial cells (HUVEC, Lonza, cat. CC-2519) and human mesenchymal stem cells (hMSC, Lonza, cat. PT-2501) were purchased from Lonza (Walkersville, MD).
PDMR cell lines were grown in complete medium (DC medium): Dulbecco's modified Eagle's medium (DMEM)/F12 supplemented with 5% fetal bovine serum (FBS), 2 mM L-glutamine, 100 U/mL penicillin and 100 µg/ml streptomycin, 0.4 µg/ml hydrocortisone, 10 ng/ml epidermal growth factor (EGF) recombinant human protein, 24 µg/mL adenine, and 0.1 mg/mL primocin. During culture from frozen stock vials, PDMR cells were cultured in the same medium containing 10 µM Y-27632 (see Table 3). The PDCs were cultured in complete DMEM/F12 media without 10 microM Y-27632 dihydrochloride for at least two passages prior to the screen. The pooled donor HUVEC and hMSC were cultured in endothelial cell growth medium 2 (PromoCell, Heidelberg, Germany, cat. C-22011) and mesenchymal stem cell growth medium 2 (PromoCell, cat. C-28009), respectively. For all experiments, HUVEC and hMSC were used at passages </=5.
[…]

[1] = curve of first compound, second compound 0.1 µM
[2] = curve of first compound, second compound 0.316 µM
[3] = curve of first compound, second compound 1 µM
[4] = curve of first compound, second compound 3.16 µM
[5] = curve of first compound, second compound 10 µM

Structure (SMILES): CC(C)NCC(C(=O)N1CCN(c2ncnc3c2C(C)CC3O)CC1)c1ccc(Cl)cc1 (stereo unspecified)
- viability, T/C (compound 0.1 µM): 69% [middle of 13 runs]
- viability, T/C (compound 0.316 µM): 37.8% [middle of 13 runs]
- viability, T/C (compound 1 µM): 21.5% [middle of 13 runs]
- viability, T/C (compound 3.16 µM): 15.8% [middle of 13 runs]
- viability, T/C (compound 10 µM): 10.5% [middle of 12 runs]
- IC50 (compound alone, run of 05/18/2021): 202 nM [middle of 13 runs]

Structure (SMILES): C=CCn1c(=O)c2cnc(Nc3ccc(N4CCN(C)CC4)cc3)nc2n1-c1cccc(C(C)(C)O)n1 + CC(C)NCC(C(=O)N1CCN(c2ncnc3c2C(C)CC3O)CC1)c1ccc(Cl)cc1
- IC50 [1]: 59.1 nM
- IC50 [2]: < 31.6 nM
- IC50 [3]: < 31.6 nM
- IC50 [4]: < 31.6 nM
- IC50 [5]: < 31.6 nM
- viability, T/C (second compound 0.1 µM, first compound 0.0316 µM): 66.1%
- viability, T/C (second compound 0.1 µM, first compound 0.1 µM): 36.5%
- viability, T/C (second compound 0.1 µM, first compound 0.316 µM): 10%
- viability, T/C (second compound 0.1 µM, first compound 1 µM): 7.27%
- viability, T/C (second compound 0.1 µM, first compound 3.16 µM): 4.83%
- viability, T/C (second compound 0.1 µM, first compound 10 µM): 6.07%
- viability, T/C (second compound 0.316 µM, first compound 0.0316 µM): 37.5%
- viability, T/C (second compound 0.316 µM, first compound 0.1 µM): 24.6%
- viability, T/C (second compound 0.316 µM, first compound 0.316 µM): 6.94%
- viability, T/C (second compound 0.316 µM, first compound 1 µM): 7.44%
- viability, T/C (second compound 0.316 µM, first compound 3.16 µM): 6.92%
- viability, T/C (second compound 0.316 µM, first compound 10 µM): 6.99%
- viability, T/C (second compound 1 µM, first compound 0.0316 µM): 19.2%
- viability, T/C (second compound 1 µM, first compound 0.1 µM): 13.9%
- viability, T/C (second compound 1 µM, first compound 0.316 µM): 4.18%
- viability, T/C (second compound 1 µM, first compound 1 µM): 6.74%
- viability, T/C (second compound 1 µM, first compound 3.16 µM): 7.21%
- viability, T/C (second compound 1 µM, first compound 10 µM): 6.84%
- viability, T/C (second compound 3.16 µM, first compound 0.0316 µM): 13.8%
- viability, T/C (second compound 3.16 µM, first compound 0.1 µM): 8.92%
- viability, T/C (second compound 3.16 µM, first compound 0.316 µM): 2.61%
- viability, T/C (second compound 3.16 µM, first compound 1 µM): 3.21%
- viability, T/C (second compound 3.16 µM, first compound 3.16 µM): 8.27%
- viability, T/C (second compound 3.16 µM, first compound 10 µM): 5.57%
- viability, T/C (second compound 10 µM, first compound 0.0316 µM): 8.99%
- viability, T/C (second compound 10 µM, first compound 0.1 µM): 4.85%
- viability, T/C (second compound 10 µM, first compound 0.316 µM): 1.17%
- viability, T/C (second compound 10 µM, first compound 1 µM): 2.53%
- viability, T/C (second compound 10 µM, first compound 3.16 µM): 4.96%
- viability, T/C (second compound 10 µM, first compound 10 µM): 3.52%

Structure (SMILES): Cn1cnc2c(F)c(Nc3ccc(Br)cc3Cl)c(C(=O)NOCCO)cc21 + CC(C)NCC(C(=O)N1CCN(c2ncnc3c2C(C)CC3O)CC1)c1ccc(Cl)cc1
- IC50 [1]: 164 nM
- IC50 [2]: < 9.49 nM
- IC50 [3]: < 9.49 nM
- IC50 [4]: < 9.49 nM
- IC50 [5]: < 9.49 nM
- viability, T/C (second compound 0.1 µM, first compound 0.00949 µM): 61.9%
- viability, T/C (second compound 0.1 µM, first compound 0.03 µM): 62%
- viability, T/C (second compound 0.1 µM, first compound 0.0949 µM): 49.1%
- viability, T/C (second compound 0.1 µM, first compound 0.3 µM): 48%
- viability, T/C (second compound 0.1 µM, first compound 0.949 µM): 35.8%
- viability, T/C (second compound 0.1 µM, first compound 3 µM): 19.7%
- viability, T/C (second compound 0.316 µM, first compound 0.00949 µM): 33.9%
- viability, T/C (second compound 0.316 µM, first compound 0.03 µM): 30.4%
- viability, T/C (second compound 0.316 µM, first compound 0.0949 µM): 25.8%
- viability, T/C (second compound 0.316 µM, first compound 0.3 µM): 21.6%
- viability, T/C (second compound 0.316 µM, first compound 0.949 µM): 18.6%
- viability, T/C (second compound 0.316 µM, first compound 3 µM): 10.3%
- viability, T/C (second compound 1 µM, first compound 0.00949 µM): 19.6%
- viability, T/C (second compound 1 µM, first compound 0.03 µM): 16.7%
- viability, T/C (second compound 1 µM, first compound 0.0949 µM): 15.2%
- viability, T/C (second compound 1 µM, first compound 0.3 µM): 11.8%
- viability, T/C (second compound 1 µM, first compound 0.949 µM): 9.36%
- viability, T/C (second compound 1 µM, first compound 3 µM): 4.86%
- viability, T/C (second compound 3.16 µM, first compound 0.00949 µM): 13.5%
- viability, T/C (second compound 3.16 µM, first compound 0.03 µM): 11.4%
- viability, T/C (second compound 3.16 µM, first compound 0.0949 µM): 9.44%
- viability, T/C (second compound 3.16 µM, first compound 0.3 µM): 9.1%
- viability, T/C (second compound 3.16 µM, first compound 0.949 µM): 6.43%
- viability, T/C (second compound 3.16 µM, first compound 3 µM): 3.45%
- viability, T/C (second compound 10 µM, first compound 0.00949 µM): 6.91%
- viability, T/C (second compound 10 µM, first compound 0.03 µM): 7.44%
- viability, T/C (second compound 10 µM, first compound 0.0949 µM): 7.64%
- viability, T/C (second compound 10 µM, first compound 0.3 µM): 5.26%
- viability, T/C (second compound 10 µM, first compound 0.949 µM): 4.92%
- viability, T/C (second compound 10 µM, first compound 3 µM): 2.28%
